From ChEMBL document CHEMBL1150333, “Isolation and antimalarial activity of new morphinan alkaloids on Plasmodium yoelii liver stage” (Bioorg Med Chem, 2008)
The source made the active and inactive calls. The rule behind the calls is not given here.

What was measured:
Plasmodium yoelii yoelii [1] = assay: Antimalarial activity against Plasmodium yoelii 265 sporozoites in primary mice (Mus musculus) hepatocytes after 48 hrs; assay type: functional, organism-based; conditions: 265 BY, Hepatocyte
[2] = Cytotoxicity against primary mouse hepatocytes after 48 hrs by neutral red assay; assay type: cell-based, Hepatocyte; conditions: read-out: TC50
[3] = Selectivity index, ratio of TC50 for primary mice (Mus musculus) hepatocytes to IC50 for Plasmodium yoelii yoelii 265 BY liver stage sporozoites; parameters: species or system Hepatocyte
Plasmodium yoelii yoelii [4] = assay: Antimalarial activity against Plasmodium yoelii 265 BY liver stage sporozoites in primary mice (Mus musculus) hepatocytes at 38.6 uM after 48 hrs; assay type: functional; conditions: Hepatocyte
Plasmodium yoelii yoelii [5] = assay: Antimalarial activity against Plasmodium yoelii 265 BY liver stage sporozoites in primary mice (Mus musculus) hepatocytes at 7.1 uM after 48 hrs; assay type: functional, organism-based; conditions: Hepatocyte

SMILES: COC1=C2[C@H]3NCC[C@]2(C[C@H](O)[C@@H]1O)c1c(ccc(OC)c1O)[C@@H]3O[C@@H]1O[C@H](CO)[C@@H](O)[C@H](O)[C@H]1O
- IC50 (Plasmodium yoelii yoelii [1]): > 390 µM
- CC50 at 48 h [2]: > 390 µM

SMILES: COC1=C2[C@H]3NCC[C@]2(C[C@H](O)[C@@H]1O)c1c(ccc(OC)c1O)[C@@H]3O
- IC50 (Plasmodium yoelii yoelii [1]): 16.1 µM
- CC50 at 48 h [2]: 388 µM
- Ratio [3]: 24.1

SMILES: COc1cc(NC(C)CCCN)c2ncccc2c1 (stereo unspecified) [PRIMAQUINE]
- IC50 (Plasmodium yoelii yoelii [1]): 0.64 µM
- inhibition in vivo at 38.6 µM (Plasmodium yoelii yoelii [4]): 80%
- CC50 at 48 h [2]: 70.5 µM
- Ratio [3]: 110

SMILES: COC1=C2[C@@H]3Cc4ccc(OC)c(O)c4[C@]2(CCN3)C[C@H](O)[C@@H]1O [SINOCOCULINE]
- IC50 (Plasmodium yoelii yoelii [1]): 4.5 µM
- CC50 at 48 h [2]: 62.2 µM
- Ratio [3]: 13.8

SMILES: COC1=C2[C@H]3NCC[C@]2(C[C@H](O)[C@@H]1O)c1c(ccc(OC)c1O)[C@H]3O [TAZOPSINE]
- IC50 (Plasmodium yoelii yoelii [1]): 3.1 µM
- CC50 at 48 h [2]: 43.7 µM
- Activity (Plasmodium yoelii yoelii [5]): Active
- Ratio [3]: 14
